Results as given in BindingDB's records for doi:10.1021/acs.jmedchem.8b00082 (Abbvie, 2018).

What was measured:
[1] = Inhibition of HCV genotype 1b Con1 NS5A expressed in HuH7 cell infected HCV genotype 5a assessed as decrease in viral replication after 3 days by luciferase reporter gene assay
[2] = Inhibition of HCV genotype 1b Con1 NS5A expressed in HuH7 cell infected HCV genotype 4a assessed as decrease in viral replication after 3 days by luciferase reporter gene assay
[3] = Inhibition of NS5A in HuH7 cell infected HCV genotype 1a H77 assessed as decrease in viral replication after 3 days in presence of 40% human plasma by luciferase reporter gene assay
[4] = Inhibition of NS5A in HuH7 cell infected HCV genotype 1b Con1 assessed as decrease in viral replication after 3 days in presence of 40% human plasma by luciferase reporter gene assay
[5] = Inhibition of HCV genotype 1b Con1 NS5A expressed in HuH7 cell infected HCV genotype 6a assessed as decrease in viral replication after 3 days by luciferase reporter gene assay
[6] = Inhibition of HCV genotype 1b Con1 NS5A expressed in HuH7 cell infected HCV genotype 3a assessed as decrease in viral replication after 3 days by luciferase reporter gene assay
[7] = Inhibition of NS5A in HuH7 cell infected HCV genotype 1a H77 assessed as decrease in viral replication after 3 days by luciferase reporter gene assay
[8] = Inhibition of NS5A in HuH7 cell infected HCV genotype 1b Con1 assessed as decrease in viral replication after 3 days by luciferase reporter gene assay
[9] = Inhibition of HCV genotype 1b Con1 NS5A expressed in HuH7 cell infected HCV genotype 2b assessed as decrease in viral replication after 3 days by luciferase reporter gene assay
[10] = Inhibition of HCV genotype 1b Con1 NS5A expressed in HuH7 cell infected HCV genotype 2a assessed as decrease in viral replication after 3 days by luciferase reporter gene assay

SMILES	EC50 [1]	EC50 [2]	EC50 [3]	EC50 [4]	EC50 [5]	EC50 [6]	EC50 [7]	EC50 [8]	EC50 [9]	EC50 [10]
COC(=O)N[C@H](C(=O)N1CCC[C@H]1c1nc2cc(F)c([C@H]3CC[C@H](c4cc5[nH]c([C@@H]6CCCN6C(=O)[C@@H](NC(=O)OC)[C@@H](C)OC)nc5cc4F)N3c3cc(F)c(N4CCC(c5ccccc5)CC4)c(F)c3)cc2[nH]1)[C@@H](C)OC	2 pM	3 pM	43 pM	138 pM	4 pM	3 pM	1 pM	3 pM	3 pM	3 pM
COC(=O)N[C@H](C(=O)N1CCC[C@H]1C(=O)Nc1ccc([C@@H]2CC[C@@H](c3ccc(NC(=O)[C@@H]4CCCN4C(=O)[C@@H](NC(=O)OC)C(C)C)cc3)N2c2ccc(C(C)(C)C)cc2)cc1)C(C)C [CHEBI:85183]	3.2 pM	1.7 pM	186 pM	56 pM	366 pM	19 pM	14 pM	5 pM	4.3 pM	12 pM
COC(=O)N[C@H](C(=O)N1CCC[C@H]1c1nc2cc(F)c([C@H]3CC[C@H](c4cc5[nH]c([C@@H]6CCCN6C(=O)[C@@H](NC(=O)OC)C6CCOCC6)nc5cc4F)N3c3cc(F)c(N4CCC(c5ccc(F)cc5)CC4)c(F)c3)cc2[nH]1)C1CCOCC1	5 pM	6 pM	220 pM	522 pM	8 pM	7 pM	3 pM	7 pM	8 pM	8 pM
COC(=O)N[C@H](C(=O)N1CCC[C@H]1c1nc2cc(F)c([C@H]3CC[C@H](c4cc5[nH]c([C@@H]6CCCN6C(=O)[C@@H](NC(=O)OC)C(C)C)nc5cc4F)N3c3cc(F)c(N4CCC(c5ccc(F)cc5)CC4)c(F)c3)cc2[nH]1)C(C)C	1 pM	1 pM	70 pM	172 pM	3 pM	1 pM	1 pM	3 pM	2 pM	3 pM
COC(=O)N[C@H](C(=O)N1CCC[C@H]1c1nc2ccc([C@H]3CC[C@H](c4ccc5nc([C@@H]6CCCN6C(=O)[C@@H](NC(=O)OC)C(C)C)[nH]c5c4)N3c3cc(F)c(N4CCC(c5ccccc5)CC4)c(F)c3)cc2[nH]1)C(C)C	3 pM	4 pM	76 pM	183 pM	8 pM	6 pM	2 pM	6 pM	6 pM	8 pM
